≈ marks a conversion by molar mass, not a printed value. Where two headings read alike, the source gives them in different places.
Key:
Strep. pheumoniae SV-1 [1] = test: in vitro antibacterial activity, microtitration dilution (MIC), Strep. pneumoniae SV-1; assay type: cell-based; details: Streptococcus pneumoniae, SV1, read-out: minimum inhibiting concentration (MIC)
Summary of the method: (§1)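 Readout: lowest compound concentration inhibiting growth (MIC, μg/mL), measured by serial dilution in microtitration format.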

Ent. cloacae MA2646 = test: in vitro antibacterial activity, microtitration dilution (MIC), Ent. cloacae MA2646; assay type: cell-based; details: Enterobacter cloacae, read-out: minimum inhibiting concentration (MIC)
Summary of the method: as §1

in vivo = test: in vivo; design: species or system mice; details: mouse, po
Protocol: The phototoxicity data is obtained using depilated mice. The compound was administered orally each day for four successive days, followed each day by 3 hours of UVA radiation. The mice were examined for any positive signs (redness, erythema) relative to control animals. The no effect dose and the 50% effect dose were determined. By use of the above methods, the following minimum inhibiting concentration values (MICs in μg/mL), PD50 's in mg/kg, no effect phototoxicity dose in mg/kg and the cytotoxicity IC50 in μg/mL were obtained for representative enantiomers of the invention and compounds of the prior art as shown in the table.

Klebs. pneumoniae MGH-2 = test: in vitro antibacterial activity, microtitration dilution (MIC), Klebs. pneumoniae MGH-2; assay type: cell-based; details: Klebsiella pneumoniae, MGH2, read-out: minimum inhibiting concentration (MIC)
Summary of the method: as §1

Staph. aureus H 228 = test: in vitro antibacterial activity, microtitration dilution (MIC), Staph. aureus H 228; assay type: cell-based; details: Staphylococcus aureus, H228, read-out: minimum inhibiting concentration (MIC)
Summary of the method: as §1

Staph. aureus UC-76 = test: in vitro antibacterial activity, microtitration dilution (MIC), Staph. aureus UC-76; assay type: cell-based; details: Staphylococcus aureus, UC76, read-out: minimum inhibiting concentration (MIC)
Summary of the method: as §1

Strep. faecalis MGH-2 = test: in vitro antibacterial activity, microtitration dilution (MIC), Strep. faecalis MGH-2; assay type: cell-based; details: Enterococcus faecalis, MGH2, read-out: minimum inhibiting concentration (MIC)
Summary of the method: as §1

Esch. coli Vogel [2] = test: median protective dose in mice given lethal systemic infections, Esch. coli Vogel; assay type: in vivo; details: Escherichia coli, single dose at time of challenge, read-out: median protective dose (PD50)
Protocol: (§2) The in vivo activity is obtained when the compounds are tested according to the procedure of Miller, et al (Proc. Soc. Exp. Biol. Med. 57, 261, 1944). The median protective dose (PD50) was determined in mice given lethal systemic infections. Single doses of compound were given at time of challenge.
(§3) By use of the above methods, the following minimum inhibiting concentration values (MICs in μg/mL), PD50 's in mg/kg, no effect phototoxicity dose in mg/kg and the cytotoxicity IC50 in μg/mL were obtained for representative enantiomers of the invention and compounds of the prior art as shown in the table.
(§4) The in vivo data as PD50 s are reported below the line of MICs for the same compound.

Pseud. aeruginosa UI-18 = test: in vitro antibacterial activity, microtitration dilution (MIC), Pseud. aeruginosa UI-18; assay type: cell-based; details: Pseudomonas aeruginosa, UI18, read-out: minimum inhibiting concentration (MIC)
Summary of the method: as §1

Strep. pyogenes C-203 [3] = test: in vitro antibacterial activity, microtitration dilution (MIC), Strep. pyogenes C-203; assay type: cell-based; details: Streptococcus pyogenes, C203, read-out: minimum inhibiting concentration (MIC)
Summary of the method: as §1

Esch. coli Vogel [4] = test: in vitro antibacterial activity, microtitration dilution (MIC), Esch. coli Vogel; assay type: cell-based; details: Escherichia coli, read-out: minimum inhibiting concentration (MIC)
Summary of the method: as §1

Strep. pyogenes C-203 [5] = test: median protective dose in mice given lethal systemic infections, Strep. pyogenes C-203; assay type: in vivo; details: Streptococcus pyogenes, single dose at time of challenge, read-out: median protective dose (PD50)
Protocol: as §2, §3, §4

[6] = cytotoxicity, hamster V-79 cells, colony reduction; assay type: cell-based; details: 3 hours treatment, colonies counted after 5 days, read-out: Cytotox (cytotoxicity IC50)
Protocol: The cytotoxicity data is obtained using hamster V-79 cells. The cells were suspended in tissue culture medium and grown overnight. Cells were treated with drug for 3 hours, washed free of drug and then replated, and the colonies counted after 5 days. The concentration of drug that reduced colones by 50% relative to control was recorded.
as §3

Prot. rettgeri M 1771 = test: in vitro antibacterial activity, microtitration dilution (MIC), Prot. rettgeri M 1771; assay type: cell-based; details: Providencia rettgeri, M1771, read-out: minimum inhibiting concentration (MIC)
Summary of the method: as §1

Strep. pheumoniae SV-1 [7] = test: median protective dose in mice given lethal systemic infections, Strep. pneumoniae SV-1; assay type: in vivo; details: Streptococcus pneumoniae, single dose at time of challenge, read-out: median protective dose (PD50)
Protocol: as §2, §3, §4

Structure (SMILES)	MIC (Strep. pheumoniae SV-1 [1])	MIC (Ent. cloacae MA2646)	NOAEL at 96 h (in vivo)	MIC (Klebs. pneumoniae MGH-2)	MIC (Staph. aureus H 228)	MIC (Staph. aureus UC-76)	MIC (Strep. faecalis MGH-2)	ED50 (Esch. coli Vogel [2]; PO)	ED50 (Esch. coli Vogel [2]; SC)	MIC (Pseud. aeruginosa UI-18)	MIC (Strep. pyogenes C-203 [3])	MIC (Esch. coli Vogel [4])	ED50 (Strep. pyogenes C-203 [5]; C203, PO)	ED50 (Strep. pyogenes C-203 [5]; C203, SC)	CC50 at 3 h [6]	MIC (Prot. rettgeri M 1771)	ED50 (Strep. pheumoniae SV-1 [7]; SV1, PO)	ED50 (Strep. pheumoniae SV-1 [7]; SV1, SC)
CN[C@H](C)[C@@H]1CCN(c2c(F)c(N)c3c(=O)c(C(=O)O)cn(C4CC4)c3c2F)C1 [Example 41, 3R,1R-5-amino-1-cyclopropyl-6,8-difluoro-7-[3-(1-N-methylaminoethyl)-1-pyrrolidinyl]-1,4-dihydro-4-oxo-3-quinoline carboxylic acid]	0.006 µg/mL (≈ 0.0148 µM)	0.05 µg/mL (≈ 0.123 µM)	30 mg/kg	0.1 µg/mL (≈ 0.246 µM)	0.006 µg/mL (≈ 0.0148 µM)	0.003 µg/mL (≈ 0.00738 µM)	0.013 µg/mL (≈ 0.032 µM)	3 mg/kg	2 mg/kg	0.8 µg/mL (≈ 1.97 µM)	0.006 µg/mL (≈ 0.0148 µM)	0.05 µg/mL (≈ 0.123 µM)	2 mg/kg	0.7 mg/kg	33 µg/mL (≈ 81.2 µM)	0.2 µg/mL (≈ 0.492 µM)		
C[C@H](N)[C@@H]1CCN(c2nc3c(cc2F)c(=O)c(C(=O)O)cn3C2CC2)C1 (relative stereo) [reference compound]		0.05 µg/mL (≈ 0.139 µM)	55 mg/kg	0.1 µg/mL (≈ 0.277 µM)	0.05 µg/mL (≈ 0.139 µM)		0.05 µg/mL (≈ 0.139 µM)								48 µg/mL (≈ 133 µM)	0.2 µg/mL (≈ 0.555 µM)		
C[C@H](N)[C@H]1CCN(c2cc3c(cc2F)c(=O)c(C(=O)O)cn3C2CC2)C1 [Example 2, 3S,1S-1-cyclopropyl-6-fluoro-7-[3-(1-aminoethyl)-1-pyrrolidinyl]-1,4-dihydro-4-oxo-3-quinolinecarboxylic acid]	0.2 µg/mL (≈ 0.556 µM)	0.2 µg/mL (≈ 0.556 µM)		0.4 µg/mL (≈ 1.11 µM)	0.8 µg/mL (≈ 2.23 µM)	0.1 µg/mL (≈ 0.278 µM)	0.4 µg/mL (≈ 1.11 µM)	100 mg/kg	4 mg/kg	1.5 µg/mL (≈ 4.17 µM)	0.1 µg/mL (≈ 0.278 µM)	0.2 µg/mL (≈ 0.556 µM)			160 µg/mL (≈ 445 µM)	0.8 µg/mL (≈ 2.23 µM)	> 100 mg/kg	12 mg/kg
CN[C@@H](C)[C@@H]1CCN(c2c(F)cc3c(=O)c(C(=O)O)cn(C4CC4)c3c2OC)C1 [Example 36, 3R,1S-1-cyclopropyl-6-fluoro-7-[3-(1-N-methylaminoethyl)-1-pyrrolidinyl]-8-methoxy-1,4-dihydro-4-oxo-3-quinolinecarboxylic acid]	0.013 µg/mL (≈ 0.0322 µM)	0.05 µg/mL (≈ 0.124 µM)	> 100 mg/kg	0.1 µg/mL (≈ 0.248 µM)	0.013 µg/mL (≈ 0.0322 µM)	0.013 µg/mL (≈ 0.0322 µM)	0.025 µg/mL (≈ 0.062 µM)	4 mg/kg	1 mg/kg	0.8 µg/mL (≈ 1.98 µM)	0.003 µg/mL (≈ 0.00744 µM)	0.05 µg/mL (≈ 0.124 µM)	1 mg/kg	0.1 mg/kg	33 µg/mL (≈ 81.8 µM)	0.2 µg/mL (≈ 0.496 µM)		
CN[C@@H](C)[C@@H]1CCN(c2c(F)c(N)c3c(=O)c(C(=O)O)cn(C4CC4)c3c2F)C1 [Example 42, 3R,1S-5-amino-1-cyclopropyl-6,8-difluoro-7-[3-(1-N-methylaminoethyl)-1-pyrrolidinyl]-1,4-dihydro-4-oxo-3-quinoline carboxylic acid]	0.006 µg/mL (≈ 0.0148 µM)	0.025 µg/mL (≈ 0.0615 µM)	< 30 mg/kg	0.05 µg/mL (≈ 0.123 µM)	0.006 µg/mL (≈ 0.0148 µM)	0.003 µg/mL (≈ 0.00738 µM)	0.013 µg/mL (≈ 0.032 µM)	3 mg/kg	0.4 mg/kg	0.8 µg/mL (≈ 1.97 µM)	0.006 µg/mL (≈ 0.0148 µM)	0.025 µg/mL (≈ 0.0615 µM)	0.55 mg/kg	0.25 mg/kg	17 µg/mL (≈ 41.8 µM)	0.1 µg/mL (≈ 0.246 µM)		
CCN[C@@H](C)[C@@H]1CCN(c2c(F)cc3c(=O)c(C(=O)O)cn(C4CC4)c3c2OC)C1 [Example 18, 3R,1S-1-cyclopropyl-6-fluoro-7-[3-(1-N-ethylaminoethyl)-1-pyrrolidinyl]-8-methoxy-1,4-dihydro-4-3-quinolinecarboxylic acid]	0.005 µg/mL (≈ 0.012 µM)	0.1 µg/mL (≈ 0.24 µM)	> 100 mg/kg	0.2 µg/mL (≈ 0.479 µM)	0.013 µg/mL (≈ 0.0311 µM)	0.003 µg/mL (≈ 0.00719 µM)	0.025 µg/mL (≈ 0.0599 µM)	5 mg/kg	2 mg/kg	3.1 µg/mL (≈ 7.43 µM)	0.006 µg/mL (≈ 0.0144 µM)	0.1 µg/mL (≈ 0.24 µM)	0.5 mg/kg	0.2 mg/kg	110 µg/mL (≈ 263 µM)	0.4 µg/mL (≈ 0.958 µM)		
